Article PMC7156458, “Synthetic biology based construction of biological activity-related library of fungal decalin-containing diterpenoid pyrones” (Nature Communications, 2020)

Target: Aβ42 (Homo sapiens, UniProt P05067)
Test: Th-T (thioflavin-T) assay of Aβ42 aggregation
Format: biochemical

Sequence of Aβ42 (P05067 672-713): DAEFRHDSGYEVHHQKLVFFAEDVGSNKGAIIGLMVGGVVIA

For `C=C1CC[C@@H]2[C@](C)(CC[C@H]3O[C@H](C=C(C)C)C[C@@]23C)[C@@H]1Cc1c(OC)oc(CO)c(C)c1=O` [Compound 20], the “Fig. 7a Th-T reading, mean of three wells” value (“Fig. 7a Th-T reading, mean” below) (column suffix _20, reading M101) was 3.25, the “Fig. 7a Th-T reading, mean” value (column suffix _20, reading M102) was 3.237 and the “Fig. 7a Th-T reading, mean” value (column suffix _20, reading M103) was 3.23. The “Fig. 7a Th-T reading, mean” value (column suffix _20, reading M104) was 3.246, the “Fig. 7a Th-T reading, mean” value (column suffix _20, reading M105) was 3.269 and the “Fig. 7a Th-T reading, mean” value (column suffix _20, reading M106) was 3.248. For the same compound, the “Th-T fluorescence, mean of three wells (Fig. 7a)” value (“Th-T fluorescence … (Fig. 7a)” below) (column suffix _50, measurement M19) was 2.199, the “Th-T fluorescence … (Fig. 7a)” value (column suffix _50, measurement M20) was 2.217 and the “Th-T fluorescence … (Fig. 7a)” value (column suffix _50, measurement M21) was 2.224. For the same compound, the “Th-T fluorescence … (Fig. 7a)” value (column suffix _50, measurement M22) was 2.216, the “Th-T fluorescence … (Fig. 7a)” value (column suffix _50, measurement M23) was 2.205 and the “Th-T fluorescence … (Fig. 7a)” value (column suffix _50, measurement M24) was 2.2076. The “Th-T fluorescence … (Fig. 7a)” value (column suffix _50, measurement M25) was 2.21, the “Th-T fluorescence … (Fig. 7a)” value (column suffix _50, measurement M26) was 2.22 and the “Th-T fluorescence … (Fig. 7a)” value (column suffix _50, measurement M27) was 2.2221. For the same compound, the “Th-T fluorescence … (Fig. 7a)” value (column suffix _50, measurement M28) was 2.198, the “Th-T fluorescence … (Fig. 7a)” value (column suffix _50, measurement M29) was 2.193 and the “Th-T assay signal, mean of three wells (Fig. 7a)” value (shortened to “Th-T assay signal, mean”) (column suffix _50, reading M1) was 0.1908. The “Th-T assay signal, mean” value (column suffix _50, reading M2) was 0.1991, the “Th-T assay signal, mean” value (column suffix _50, reading M3) was 0.2032 and the “Th-T assay signal, mean” value (column suffix _50, reading M4) was 0.2087. The “Th-T assay signal, mean” value (column suffix _50, reading M5) was 0.2172, the “Th-T assay signal, mean” value (column suffix _50, reading M6) was 0.2431 and the “Th-T assay signal, mean” value (column suffix _50, reading M7) was 0.2722. For the same compound, the “Th-T assay signal, mean” value (column suffix _50, reading M8) was 0.3931, the “Th-T assay signal, mean” value (column suffix _50, reading M9) was 0.6726 and the “Th-T assay signal, mean” value (column suffix _50, reading M10) was 1.1256. The “Th-T assay signal, mean” value (column suffix _50, reading M11) was 1.605, the “Th-T assay signal, mean” value (column suffix _50, reading M12) was 1.883 and the “Th-T assay signal, mean” value (column suffix _50, reading M13) was 2.0174. The “Th-T assay signal, mean” value (column suffix _50, reading M14) was 2.101, the “Th-T assay signal, mean” value (column suffix _50, reading M15) was 2.147 and the “Th-T assay signal, mean” value (column suffix _50, reading M16) was 2.173. For the same compound, the “Th-T assay signal, mean” value (column suffix _50, reading M17) was 2.183, the “Th-T assay signal, mean” value (column suffix _50, reading M18) was 2.192 and the “Fig. 7a Th-T reading, mean” value (column suffix _50, reading M85) was 2.067. The “Fig. 7a Th-T reading, mean” value (column suffix _50, reading M86) was 2.077, the “Fig. 7a Th-T reading, mean” value (column suffix _50, reading M87) was 2.082 and the “Fig. 7a Th-T reading, mean” value (column suffix _50, reading M88) was 2.092. For the same compound, the “Fig. 7a Th-T reading, mean” value (column suffix _50, reading M89) was 2.095, the “Fig. 7a Th-T reading, mean” value (column suffix _50, reading M90) was 2.096 and the “Fig. 7a Th-T reading, mean” value (column suffix _50, reading M91) was 2.085. The “Fig. 7a Th-T reading, mean” value (column suffix _50, reading M92) was 2.089, the “Fig. 7a Th-T reading, mean” value (column suffix _50, reading M93) was 2.088 and the “Fig. 7a Th-T reading, mean” value (column suffix _50, reading M94) was 2.094. The “Fig. 7a Th-T reading, mean” value (column suffix _50, reading M95) was 2.0955, the “Fig. 7a Th-T reading, mean” value (column suffix _50, reading M96) was 2.087 and the “Fig. 7a Th-T reading, mean” value (column suffix _50, reading M97) was 2.084. For the same compound, the “Fig. 7a Th-T reading, mean” value (column suffix _50, reading M98) was 2.09, the “Fig. 7a Th-T reading, mean” value (column suffix _50, reading M99) was 2.099 and the “Fig. 7a Th-T reading, mean” value (column suffix _50, reading M100) was 2.117. For the same compound, the “Fig. 7a Th-T reading, mean” value (column suffix _50, reading M101) was 2.093, the “Fig. 7a Th-T reading, mean” value (column suffix _50, reading M102) was 2.09 and the “Fig. 7a Th-T reading, mean” value (column suffix _50, reading M103) was 2.088. The “Fig. 7a Th-T reading, mean” value (column suffix _50, reading M104) was 2.099, the “Fig. 7a Th-T reading, mean” value (column suffix _50, reading M105) was 2.107 and the “Fig. 7a Th-T reading, mean” value (column suffix _50, reading M106) was 2.096. For the same compound, the “Th-T fluorescence, mean of three wells” value (compound at 10, reading M41 of time course) was 3.473, the “Th-T fluorescence, mean of three wells” value (compound at 10, reading M42 of time course) was 3.463 and the “Th-T fluorescence, mean of three wells” value (compound at 10, reading M43 of time course) was 3.47. The “Th-T fluorescence, mean of three wells” value (compound at 10, reading M44 of time course) was 3.466, the “Th-T fluorescence, mean of three wells” value (compound at 10, reading M45 of time course) was 3.48 and the “Th-T fluorescence, mean of three wells” value (compound at 10, reading M46 of time course) was 3.474. The “Th-T fluorescence, mean of three wells” value (compound at 10, reading M47 of time course) was 3.473, the “Th-T fluorescence, mean of three wells” value (compound at 10, reading M48 of time course) was 3.454 and the “Th-T fluorescence, mean of three wells” value (compound at 10, reading M49 of time course) was 3.4597. For the same compound, the “Th-T fluorescence, mean of three wells” value (compound at 10, reading M50 of time course) was 3.479, the “Th-T fluorescence, mean of three wells” value (compound at 10, reading M51 of time course) was 3.451 and the “Th-T fluorescence, mean of three wells” value (compound at 10, reading M52 of time course) was 3.467. For the same compound, the “Th-T fluorescence, mean of three wells” value (compound at 10, reading M53 of time course) was 3.449, the “Th-T fluorescence, mean of three wells” value (compound at 10, reading M54 of time course) was 3.468 and the “Th-T fluorescence, mean of three wells” value (compound at 10, reading M55 of time course) was 3.479. The “Th-T fluorescence, mean of three wells” value (compound at 10, reading M56 of time course) was 3.4836, the “Th-T fluorescence, mean of three wells” value (compound at 10, reading M57 of time course) was 3.456 and the “Th-T fluorescence, mean of three wells” value (compound at 10, reading M58 of time course) was 3.464. The “Th-T fluorescence, mean of three wells” value (compound at 10, reading M59 of time course) was 3.461, the “Th-T fluorescence, mean of three wells” value (compound at 10, reading M60 of time course) was 3.452 and the “Th-T fluorescence, mean of three wells” value (compound at 10, reading M61 of time course) was 3.461. The “Th-T fluorescence, mean of three wells” value (compound at 10, reading M62 of time course) was 3.452, the “Th-T fluorescence, mean of three wells” value (compound at 20, reading M41 of time course) was 3.421 and the “Th-T fluorescence, mean of three wells” value (compound at 20, reading M42 of time course) was 3.4495. The “Th-T fluorescence, mean of three wells” value (compound at 20, reading M43 of time course) was 3.4108, the “Th-T fluorescence, mean of three wells” value (compound at 20, reading M44 of time course) was 3.412 and the “Th-T fluorescence, mean of three wells” value (compound at 20, reading M45 of time course) was 3.402. The “Th-T fluorescence, mean of three wells” value (compound at 20, reading M46 of time course) was 3.446, the “Th-T fluorescence, mean of three wells” value (compound at 20, reading M47 of time course) was 3.447 and the “Th-T fluorescence, mean of three wells” value (compound at 20, reading M48 of time course) was 3.449. For the same compound, the “Th-T fluorescence, mean of three wells” value (compound at 20, reading M49 of time course) was 3.413, the “Th-T fluorescence, mean of three wells” value (compound at 20, reading M50 of time course) was 3.443 and the “Th-T fluorescence, mean of three wells” value (compound at 20, reading M51 of time course) was 3.447. The “Th-T fluorescence, mean of three wells” value (compound at 20, reading M52 of time course) was 3.466, the “Th-T fluorescence, mean of three wells” value (compound at 20, reading M53 of time course) was 3.442 and the “Th-T fluorescence, mean of three wells” value (compound at 20, reading M54 of time course) was 3.43. For the same compound, the “Th-T fluorescence, mean of three wells” value (compound at 20, reading M55 of time course) was 3.418, the “Th-T fluorescence, mean of three wells” value (compound at 20, reading M56 of time course) was 3.449 and the “Th-T fluorescence, mean of three wells” value (compound at 20, reading M57 of time course) was 3.4659. The “Th-T fluorescence, mean of three wells” value (compound at 20, reading M58 of time course) was 3.449, the “Th-T fluorescence, mean of three wells” value (compound at 20, reading M59 of time course) was 3.427 and the “Th-T fluorescence, mean of three wells” value (compound at 20, reading M60 of time course) was 3.432. For the same compound, the “Th-T fluorescence, mean of three wells” value (compound at 20, reading M61 of time course) was 3.433, the “Th-T fluorescence, mean of three wells” value (compound at 20, reading M62 of time course) was 3.454 and the “Th-T fluorescence, mean of three wells” value (compound at 50, reading M41 of time course) was 2.136. The “Th-T fluorescence, mean of three wells” value (compound at 50, reading M42 of time course) was 2.134, the “Th-T fluorescence, mean of three wells” value (compound at 50, reading M43 of time course) was 2.091 and the “Th-T fluorescence, mean of three wells” value (compound at 50, reading M44 of time course) was 2.118. The “Th-T fluorescence, mean of three wells” value (compound at 50, reading M45 of time course) was 2.11, the “Th-T fluorescence, mean of three wells” value (compound at 50, reading M46 of time course) was 2.107 and the “Th-T fluorescence, mean of three wells” value (compound at 50, reading M47 of time course) was 2.113. For the same compound, the “Th-T fluorescence, mean of three wells” value (compound at 50, reading M48 of time course) was 2.125, the “Th-T fluorescence, mean of three wells” value (compound at 50, reading M49 of time course) was 2.092 and the “Th-T fluorescence, mean of three wells” value (compound at 50, reading M50 of time course) was 2.091. For the same compound, the “Th-T fluorescence, mean of three wells” value (compound at 50, reading M51 of time course) was 2.089, the “Th-T fluorescence, mean of three wells” value (compound at 50, reading M52 of time course) was 2.103 and the “Th-T fluorescence, mean of three wells” value (compound at 50, reading M53 of time course) was 2.105.
